Reference: patent publication US5585492A, “LTA4 Hydrolase inhibitors” (priority 1994, dated 1996)
Structures can show the parent of a compound that is named as a salt. Where two headings read alike, the source gives them in different places.

Columns and labels:
[1] = system: LTB4 production in human blood; experiment: Inhibition of Calcium Ionophore-Induced LTB4 Production in Human Blood (HWB); assay type: cell-based; conditions: Homo sapiens, read-out: Inhibition of Calcium Ionophore-Induced LTB4 Production in Human Blood IC50 HWB
[2] = biological target: T1, recombinant human LTA4 hydrolase (Homo sapiens, UniProt P09960); experiment: Recombinant Human LTA4 Hydrolase Assay for LTA4 Hydrolase Inhibitor Activity (LTB4 by enzyme-linked immunoassay); assay type: biochemical; conditions: for IC50: read-out: Recombinant Human LTA4 Hydrolase Assay IC50 LTA4H
T1 construct: made in house; host or cells: Spodoptera frugiperda Sf-9 cells, baculovirus (AcNPV) expression vector
T1 sequence (P09960 1-611): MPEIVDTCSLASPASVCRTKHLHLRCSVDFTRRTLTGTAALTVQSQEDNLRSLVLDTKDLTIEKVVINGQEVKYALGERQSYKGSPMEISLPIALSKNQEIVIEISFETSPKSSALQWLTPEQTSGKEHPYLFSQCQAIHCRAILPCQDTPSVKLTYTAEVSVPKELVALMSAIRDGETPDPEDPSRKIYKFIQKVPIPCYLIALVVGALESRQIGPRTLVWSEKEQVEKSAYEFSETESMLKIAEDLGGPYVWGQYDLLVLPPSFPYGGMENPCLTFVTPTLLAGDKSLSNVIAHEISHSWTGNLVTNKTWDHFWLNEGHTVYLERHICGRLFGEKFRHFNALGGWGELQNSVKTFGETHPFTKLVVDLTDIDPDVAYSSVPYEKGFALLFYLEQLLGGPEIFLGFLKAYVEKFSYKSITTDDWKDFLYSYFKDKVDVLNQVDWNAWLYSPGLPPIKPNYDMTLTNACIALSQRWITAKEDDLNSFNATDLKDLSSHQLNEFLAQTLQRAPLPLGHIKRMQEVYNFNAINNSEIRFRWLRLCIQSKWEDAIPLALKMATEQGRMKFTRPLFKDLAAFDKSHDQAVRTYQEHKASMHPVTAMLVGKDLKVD
Experimental: Compounds of the present invention were tested for LTA4 hydrolase inhibitor activity against recombinant human LTA4 hydrolase (rhLTA4 H). […] Briefly, LTA4 hydrolase encoding DNA was amplified by polymerase chain reaction using a pair of oligonucleotide primers based on the nucleotide sequence from the 5'-end, and the complement of the 3'-end, of the coding region of the LTA4 hydrolase gene, the nucleotide sequence of which gene is known. […] A λgtll human placental cDNA library (Clonetech, Palo Alto, Calif.) provided the nucleic acid template.
One or more predetermined amounts of a compound of the invention were incubated in assay buffer (0.1M potassium phosphate, 5 mg/ml fatty acid free BSA, 10% DMSO, pH 7.4) for 10 minutes at room temperature with 250 ng of recombinant hLT4 H to allow binding, if any, between the enzyme and inhibitor. The stock enzyme solution was 1 mg/ml LTA4 hydrolase, 50 mM Tris, pH 8.0, 150 mM NaCl, 2.5 mM beta-mercaptoethanol, 50% glycerol. […] LTA4 (i.e., substrate) was prepared from the methyl ester of LTA4 (Biomol, Inc., Plymouth Meeting, Pa.) by treating the methyl ester with 30 molar equivalents of LiOH at room temperature for 18 hours. The LTA4 substrate in its free acid form was kept frozen at -80° C. until needed. […] Each reaction was carried out at room temperature for 10 minutes. The reaction was stopped by diluting 25 μl of the reaction mixture with 500 μl of the assay buffer without DMSO. LTB4 was quantified in the diluted sample by a commercially available enzyme-linked immunoassay [Caymen Chemical Co., Ann Arbor, Mich.] using the method recommended in the manufacturer's instructions and compared to the amount of LTB4 produced in a negative control (i.e., essentially identical conditions except without addition of an inhibitor compound). The IC50 was routinely calculated from the data produced.

[3] = system: LTB4 production in mouse blood; experiment: Murine Ex Vivo LTB4 Inhibition, calcium ionophore stimulated mouse blood after oral gavage; assay type: in vivo
Experimental: Leukotriene A4 hydrolass inhibitor compounds of the present invention were diluted to a predetermined concentration in phosphate buffered saline containing 2% DMSO and 1% Tween 80. The compounds were administered by oral gavage to adult male outbred mice weighing approximately 20-30 gm at a dose of 10 mg/kg body weight. (Compounds given at a dose of 50 mg/kg body weight are designtated in following Table by the symbol, *.) Sixty (60) minutes after administration of an LTA4 inhibitor compound of the invention, blood was collected (into heparin-containing tubes) from the retroorbital sinus. […] The mixture was incubated for 10 minutes at 37° C. in a humidified incubator. The reaction was terminated by centrifugation (833 g, 10 minutes at 4° C.). Supernatants were analyzed for LTB4 and thromboxane by commercially available enzyme-linked immunoassays [Caymen Chemical Co., Ann Arbor, Mich.] in accordance with the manufacturer's instructions. The percent inhibition was determined by comparison to animals treated identically except that the solution admininstered by oral gavage was devoid of inhibitor compound.

[4] = human whole blood, A23187 20 mcg/ml

`COC(=O)CCN(C)CCCOc1ccc(Cc2cccs2)cc1` [Example 331] showed an IC50 [1, 4] of 95 nM and an IC50 [2] of 16 nM.

With `[O-][n+]1ccc2c(c1)ncn2CCOc1ccc(Cc2ccccc2)cc1` [Example 365] the “Murine Ex Vivo LTB4 Inhibition % I LTB4 at 1 hour after administration of 10 mg/kg” value ([3]; oral gavage, 10 mg/kg, 1 hour) was 72%.

For `CCOC(=O)C1CCN(CCOc2ccc(Cc3ccccc3)cc2)CC1` [Example 245], the IC50 [1, 4] was 147 nM and the “Murine Ex Vivo LTB4 Inhibition % I LTB4 at 1 hour after administration of 10 mg/kg” value ([3]; oral gavage, 10 mg/kg, 1 hour) was 97%.

`CC1(CN2CCCC2)Cc2cc(Cc3ccccc3)ccc2O1` (centres unmarked) [Example 285] was tested, and the IC50 [1, 4] was 1730 nM and the IC50 [2] was 130 nM.

With `c1ccc(Cc2ccc3c(c2)CC(Cn2ccc4ncnc-4c2)O3)cc1` (centres unmarked) [Example 358C] the IC50 [1, 4] was 590 nM and the “Murine Ex Vivo LTB4 Inhibition % I LTB4 at 1 hour after administration of 10 mg/kg” value ([3]; oral gavage, 10 mg/kg, 1 hour) was 13%.

With `COC(=O)CC1CC2CC1CN2CCOc1ccc(Cc2ccccc2)cc1` (centres unmarked) [Example 304] the IC50 [2] was 15 nM and the “Murine Ex Vivo LTB4 Inhibition % I LTB4 at 1 hour after administration of 10 mg/kg” value ([3]; in vivo, po) was 80%.

`Clc1cccc(COc2ccc(OCCN3CCCC3)cc2)c1` [Example 206] was tested, and the IC50 [1, 4] was 1650 nM and the “Murine Ex Vivo LTB4 Inhibition % I LTB4 at 1 hour after administration of 10 mg/kg” value ([3]; oral gavage, 10 mg/kg, 1 hour) was 0%.

In the case of `NC(=O)CC1CCN(CCOc2ccc(Cc3ccccc3)cc2)C1` (centres unmarked) [Example 426], the IC50 [1, 4] is reported as 403 nM and the IC50 [2] is reported as 210 nM.

For `COC(=O)C1CC2CCC(C1)N2CC1Cc2cc(Cc3ccccc3)ccc2O1` (centres unmarked) [Example 283], the IC50 [1] was 90 nM and the “Murine Ex Vivo LTB4 Inhibition % I LTB4 at 1 hour after administration of 10 mg/kg” value ([3]; oral gavage, 10 mg/kg, 1 hour) was 90%.

`c1ccc(Cc2ccc(OCCN3CCCC3)nc2)cc1` [Example 112] was tested, and the IC50 [2] was 7 nM and the “Murine Ex Vivo LTB4 Inhibition % I LTB4 at 1 hour after administration of 50 mg/kg (*)” value ([3]; in vivo, po) was 82%.

In the case of `c1ccc(Cc2ccc3c(c2)CC(Cn2cnc4cnccc42)O3)cc1` (centres unmarked) [Example 358B], the IC50 [1, 4] is reported as 640 nM and the “Murine Ex Vivo LTB4 Inhibition % I LTB4 at 1 hour after administration of 10 mg/kg” value ([3]; oral gavage, 10 mg/kg, 1 hour) is reported as 33%.

In the case of `Clc1ccc(Cc2ccc(OCCN3CCCC3)cc2)cc1` [Example 140], the IC50 [1, 4] is reported as 1010 nM and the IC50 [2] is reported as 60 nM.

With `COC(=O)C1CCN(CCOc2ccc(Cc3ccccc3)cc2)C1` (centres unmarked) [Example 276] the IC50 [1, 4] was 232 nM and the IC50 [2] was 4100 nM.

`Fc1cc(Cc2ccccc2)ccc1OCCN1CCCC1` [Example 115] was tested, and the IC50 [1, 4] was 190 nM and the IC50 [2] was 60 nM.

Work on `NC(=O)C1CCN(CCOc2ccc(Cc3ccccc3)cc2)C1` (centres unmarked) [Example 425] yielded an IC50 [1, 4] of 360 nM and an IC50 [2] of 16 nM.

For `COC[C@@H]1CCCN1CCOc1ccc(Cc2ccccc2)cc1` [Example 400], the IC50 [1, 4] was 380 nM and the IC50 [2] was 60 nM.

For `c1nc(Cc2ccc(OCCN3CCCC3)cc2)cs1` [Example 49], the IC50 [2] was 190 nM and the “Murine Ex Vivo LTB4 Inhibition % I LTB4 at 1 hour after administration of 10 mg/kg” value ([3]; oral gavage, 10 mg/kg, 1 hour) was 46%.

With `CC(=O)NC1CCN(CCOc2ccc(Cc3ccccc3)cc2)C1` (centres unmarked) [Example 227] the IC50 [1, 4] was 420 nM and the IC50 [2] was 210 nM.

`COC(=O)[C@@H]1CCCN1CCOc1ccc(Cc2ccccc2)cc1` [Example 225, Methyl 1-[2-[4-(phenylmethyl)phenoxy]ethyl]-2S-pyrrolidine-2-carboxylate, monohydrochloride, hydrate] showed an IC50 [1, 4] of 1860 nM and an IC50 [2] of 450 nM.

For `COC(=O)CCNCCOc1ccc(Cc2ccccc2)cc1` [Example 324], the IC50 [1, 4] was 586 nM and the IC50 [2] was 220 nM.

Work on `c1ccc(Cc2ccc(OCCn3cnc4cccnc43)cc2)cc1` [Example 338C] yielded an IC50 [1, 4] of 9150 nM and an inhibition at 3 µM [2] of 34%.

`CC(=O)NC1CCN(CCOc2ccc(Cc3ccccc3)cc2)CC1` [Example 238] was tested, and the IC50 [1, 4] was 180 nM and the IC50 [2] was 50 nM.

In the case of `CC1CCCC(C)N1CCOc1ccc(Cc2ccccc2)cc1` (centres unmarked) [Example 402], the “Murine Ex Vivo LTB4 Inhibition % I LTB4 at 1 hour after administration of 10 mg/kg” value ([3]; oral gavage, 10 mg/kg, 1 hour) is reported as 58%.
